In ChEMBL document CHEMBL5543136, “Discovery of Novel Heterotricyclic Compounds as DNA-Dependent Protein Kinase (DNA-PK) Inhibitors with Enhanced Chemosensitivity, Oral Bioavailability, and the Ability to Potentiate Cancer Immunotherapy” (J Med Chem, 2024):
Active and inactive are the calls of the source. No cut-off for these calls is given here.

Assays:
[1] = biological target: DNA-dependent protein kinase catalytic subunit (Homo sapiens, UniProt P78527); experiment: Inhibition of human full-length DNA-PK using EPPLSQEAFADLWKK as substrate incubated for 60 mins in presence of ATP by ADP-Glo kinase assay
Chain of DNA-dependent protein kinase catalytic subunit (P78527 whole entry): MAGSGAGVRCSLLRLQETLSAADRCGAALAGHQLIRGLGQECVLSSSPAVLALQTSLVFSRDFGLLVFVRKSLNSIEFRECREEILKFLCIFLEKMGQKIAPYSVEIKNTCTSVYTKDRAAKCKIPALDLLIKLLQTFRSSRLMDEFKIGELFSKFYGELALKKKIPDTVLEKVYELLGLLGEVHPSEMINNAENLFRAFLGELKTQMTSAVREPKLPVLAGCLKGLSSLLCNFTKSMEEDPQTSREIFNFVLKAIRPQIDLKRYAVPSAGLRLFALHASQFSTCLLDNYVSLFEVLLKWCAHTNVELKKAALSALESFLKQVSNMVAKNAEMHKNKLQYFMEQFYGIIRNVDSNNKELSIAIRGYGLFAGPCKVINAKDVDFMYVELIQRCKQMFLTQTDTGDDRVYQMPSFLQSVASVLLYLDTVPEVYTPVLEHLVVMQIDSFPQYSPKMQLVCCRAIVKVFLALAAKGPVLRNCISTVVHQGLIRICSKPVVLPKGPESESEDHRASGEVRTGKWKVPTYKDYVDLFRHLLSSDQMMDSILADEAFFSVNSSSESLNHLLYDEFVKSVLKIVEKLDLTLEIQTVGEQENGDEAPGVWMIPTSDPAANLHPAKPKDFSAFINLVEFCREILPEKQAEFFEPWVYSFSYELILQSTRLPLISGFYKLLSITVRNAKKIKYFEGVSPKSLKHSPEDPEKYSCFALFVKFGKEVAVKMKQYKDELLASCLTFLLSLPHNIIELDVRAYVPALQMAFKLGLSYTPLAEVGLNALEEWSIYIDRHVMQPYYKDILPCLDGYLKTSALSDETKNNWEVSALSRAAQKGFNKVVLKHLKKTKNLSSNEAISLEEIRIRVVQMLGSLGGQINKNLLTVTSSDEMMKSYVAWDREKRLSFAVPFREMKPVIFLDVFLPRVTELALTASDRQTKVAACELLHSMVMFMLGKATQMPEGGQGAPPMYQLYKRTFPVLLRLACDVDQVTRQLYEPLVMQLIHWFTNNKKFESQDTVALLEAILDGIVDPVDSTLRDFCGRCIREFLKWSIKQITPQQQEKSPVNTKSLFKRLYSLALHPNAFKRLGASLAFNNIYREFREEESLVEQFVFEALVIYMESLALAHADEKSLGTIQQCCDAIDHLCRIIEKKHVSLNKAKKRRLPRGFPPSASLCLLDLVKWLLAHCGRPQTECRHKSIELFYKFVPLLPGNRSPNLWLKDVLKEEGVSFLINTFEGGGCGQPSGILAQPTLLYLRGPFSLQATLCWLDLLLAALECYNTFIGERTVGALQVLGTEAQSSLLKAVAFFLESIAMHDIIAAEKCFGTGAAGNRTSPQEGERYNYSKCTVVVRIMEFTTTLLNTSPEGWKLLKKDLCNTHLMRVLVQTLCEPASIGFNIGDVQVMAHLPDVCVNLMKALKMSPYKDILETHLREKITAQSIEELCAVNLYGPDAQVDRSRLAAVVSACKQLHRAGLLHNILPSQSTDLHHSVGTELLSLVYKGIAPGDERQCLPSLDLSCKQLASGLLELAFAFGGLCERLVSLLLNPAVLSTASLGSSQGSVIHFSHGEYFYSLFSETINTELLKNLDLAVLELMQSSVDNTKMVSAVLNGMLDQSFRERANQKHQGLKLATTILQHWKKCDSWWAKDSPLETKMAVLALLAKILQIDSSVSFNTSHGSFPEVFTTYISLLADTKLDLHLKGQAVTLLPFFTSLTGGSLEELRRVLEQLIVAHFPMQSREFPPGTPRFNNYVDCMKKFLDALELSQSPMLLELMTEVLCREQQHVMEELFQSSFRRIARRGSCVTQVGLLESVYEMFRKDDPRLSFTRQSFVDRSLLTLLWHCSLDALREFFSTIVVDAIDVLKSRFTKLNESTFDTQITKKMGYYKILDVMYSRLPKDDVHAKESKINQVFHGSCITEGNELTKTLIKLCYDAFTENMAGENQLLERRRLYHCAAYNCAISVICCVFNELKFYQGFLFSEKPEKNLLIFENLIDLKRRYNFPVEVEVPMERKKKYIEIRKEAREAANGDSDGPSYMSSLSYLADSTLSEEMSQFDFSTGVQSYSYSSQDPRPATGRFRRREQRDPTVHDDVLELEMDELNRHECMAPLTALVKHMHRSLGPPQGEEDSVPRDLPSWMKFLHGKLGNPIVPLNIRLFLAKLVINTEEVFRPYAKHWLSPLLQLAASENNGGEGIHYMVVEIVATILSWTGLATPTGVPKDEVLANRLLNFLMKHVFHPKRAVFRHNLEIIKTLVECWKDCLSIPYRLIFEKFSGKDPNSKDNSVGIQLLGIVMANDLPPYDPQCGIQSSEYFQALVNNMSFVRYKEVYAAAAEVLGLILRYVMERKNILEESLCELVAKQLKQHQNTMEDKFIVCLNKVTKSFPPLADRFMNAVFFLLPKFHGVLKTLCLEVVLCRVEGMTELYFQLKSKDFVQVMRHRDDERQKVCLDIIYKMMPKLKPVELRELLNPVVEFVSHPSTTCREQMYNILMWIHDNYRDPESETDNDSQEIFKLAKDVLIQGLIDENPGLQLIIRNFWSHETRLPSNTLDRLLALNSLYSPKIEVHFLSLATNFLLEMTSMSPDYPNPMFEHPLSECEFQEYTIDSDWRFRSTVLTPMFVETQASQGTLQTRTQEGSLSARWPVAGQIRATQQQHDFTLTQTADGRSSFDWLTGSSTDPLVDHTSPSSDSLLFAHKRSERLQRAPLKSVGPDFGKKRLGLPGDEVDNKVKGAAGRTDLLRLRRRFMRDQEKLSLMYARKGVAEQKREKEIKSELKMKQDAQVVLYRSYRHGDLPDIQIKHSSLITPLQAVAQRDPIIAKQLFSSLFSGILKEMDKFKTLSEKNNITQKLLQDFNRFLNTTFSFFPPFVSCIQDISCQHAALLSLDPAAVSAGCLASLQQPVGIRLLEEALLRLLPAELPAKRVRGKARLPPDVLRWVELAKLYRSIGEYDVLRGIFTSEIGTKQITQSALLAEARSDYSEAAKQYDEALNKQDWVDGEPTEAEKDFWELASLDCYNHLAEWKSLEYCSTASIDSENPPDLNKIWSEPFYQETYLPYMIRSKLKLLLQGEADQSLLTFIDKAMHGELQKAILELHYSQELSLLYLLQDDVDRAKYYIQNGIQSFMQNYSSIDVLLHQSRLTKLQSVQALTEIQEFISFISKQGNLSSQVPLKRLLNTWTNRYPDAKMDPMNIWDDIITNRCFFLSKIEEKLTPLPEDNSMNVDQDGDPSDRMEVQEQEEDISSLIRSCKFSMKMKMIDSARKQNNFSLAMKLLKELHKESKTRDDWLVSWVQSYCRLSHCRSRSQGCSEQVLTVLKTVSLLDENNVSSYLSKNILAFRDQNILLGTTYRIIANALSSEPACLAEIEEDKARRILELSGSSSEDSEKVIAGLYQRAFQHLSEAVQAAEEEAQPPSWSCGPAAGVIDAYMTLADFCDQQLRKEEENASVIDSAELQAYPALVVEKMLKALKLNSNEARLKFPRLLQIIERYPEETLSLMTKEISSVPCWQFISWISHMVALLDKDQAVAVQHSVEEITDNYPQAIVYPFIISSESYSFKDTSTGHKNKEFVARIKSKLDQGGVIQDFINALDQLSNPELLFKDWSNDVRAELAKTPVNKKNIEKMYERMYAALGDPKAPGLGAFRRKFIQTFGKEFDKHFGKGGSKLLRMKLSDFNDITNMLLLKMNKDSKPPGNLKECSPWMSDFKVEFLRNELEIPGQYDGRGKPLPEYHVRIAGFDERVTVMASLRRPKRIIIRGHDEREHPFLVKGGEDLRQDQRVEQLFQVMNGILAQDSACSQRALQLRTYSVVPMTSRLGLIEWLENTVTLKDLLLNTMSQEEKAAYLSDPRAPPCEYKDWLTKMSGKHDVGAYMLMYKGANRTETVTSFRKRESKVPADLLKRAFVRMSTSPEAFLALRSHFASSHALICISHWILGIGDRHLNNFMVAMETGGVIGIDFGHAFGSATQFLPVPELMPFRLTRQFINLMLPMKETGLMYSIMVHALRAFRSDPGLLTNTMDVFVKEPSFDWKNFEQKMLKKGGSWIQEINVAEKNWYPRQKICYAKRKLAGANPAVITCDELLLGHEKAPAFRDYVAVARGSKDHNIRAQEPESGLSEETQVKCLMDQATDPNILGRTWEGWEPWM

B16-F10 [2] = experiment: Synergistic antiproliferative activity against mouse B16-F10 cells assessed as reduction in cell viability incubated for 48 hrs in presence of doxorubicin by CCK-8 assay; type: functional, cell-based; conditions: B16-F10, 48 h
Jurkat [3] = experiment: Synergistic antiproliferative activity against human Jurkat cells assessed as reduction in cell viability incubated for 48 hrs in presence of doxorubicin by CCK-8 assay; type: functional, cell-based
B16-F10 [4] = experiment: Antiproliferative activity against mouse B16-F10 cells assessed as reduction in cell viability incubated for 48 hrs by CCK-8 assay; type: functional, cell-based; conditions: B16-F10, 48 h
CT26 [5] = experiment: Antiproliferative activity against mouse CT26 cells assessed as reduction in cell viability incubated for 48 hrs by CCK-8 assay; type: functional, cell-based; conditions: CT26, 48 h
Jurkat [6] = experiment: Antiproliferative activity against human Jurkat cells assessed as reduction in cell viability incubated for 48 hrs by CCK-8 assay; type: functional, cell-based
CT26 [7] = experiment: Synergistic antiproliferative activity against mouse CT26 cells assessed as reduction in cell viability incubated for 48 hrs in presence of doxorubicin by CCK-8 assay; type: functional, cell-based; conditions: CT26, 48 h
Cell membrane [8] = experiment: Induction of mitochondrial membrane potential loss in human Jurkat cells at 1 uM incubated for 24 hrs by JC-1 staining based flow cytometric analysis; type: cell membranes
HepG2 = experiment: Inhibition of DNA damage repair in human HepG2 cells assessed as reduction in gammaH2AX expression level at 20 uM by Western blot analysis; type: functional, cell-based
Cell membrane [9] = experiment: Induction of mitochondrial membrane potential loss in human Jurkat cells at 1 uM incubated for 24 hrs in presence of doxorubicin by JC-1 staining based flow cytometric analysis; type: cell membranes
Jurkat [10] = experiment: Induction of cell cycle arrest in human Jurkat cells assessed as increase in G2/M phase cells at 1 uM incubated for 24 hrs in presence of doxorubicin by PI staining based flow cytometric analysis; type: functional
Jurkat [11] = experiment: Induction of cell cycle arrest in human Jurkat cells assessed as decrease in S phase cells at 1 uM incubated for 24 hrs in presence of doxorubicin by PI staining based flow cytometric analysis; type: functional
CT26 [12] = experiment: Antiproliferative activity against mouse CT26 cells assessed as inhibition of cell growth incubated for 48 hrs by CCK-8 assay relative to control; type: functional
CT26 [13] = experiment: Antitumor activity against mouse CT26 cells implanted in BALB/c mouse assessed as tumor growth inhibition at 2.5 mg/kg, iv administered once a week for 21 days relative to control; type: functional; conditions: CT26, 504 h, time 21 day, read-out: TGI
CT26 [14] = experiment: Antitumor activity against mouse CT26 cells implanted in BALB/c mouse assessed as tumor growth inhibition at 10 mg/kg, ip administered once daily for 21 days relative to control; type: functional; conditions: CT26, 504 h, time 21 day, read-out: TGI
Jurkat [15] = experiment: Antiproliferative activity against human Jurkat cells assessed as inhibition of cell growth incubated for 48 hrs by CCK-8 assay relative to control; type: functional
B16-F10 [16] = experiment: Antiproliferative activity against mouse B16-F10 cells assessed as inhibition of cell growth incubated for 48 hrs by CCK-8 assay relative to control; type: functional
[17] = Toxicity in BALB/c mouse implanted with mouse CT26 cells assessed as weight loss at 2.5 mg/kg, iv administered once a week for 21 days; type: organism-based; conditions: in vivo, 504 h, time 21 day
B16-F10 [18] = experiment: Immunomodulatory activity in mouse B16-F10 cells implanted in C57BL/6 mouse assessed as percentage of CD3 positive CD4 positive cells in tumor at 50 mg/kg, ip administered once daily for 13 days by flow cytometric analysis (reference value: 0.86%); type: functional; conditions: time 13 day
B16-F10 [19] = experiment: Immunomodulatory activity in mouse B16-F10 cells implanted in C57BL/6 mouse assessed as percentage of CD3 positive CD8 positive cells in tumor at 50 mg/kg, ip administered once daily for 13 days by flow cytometric analysis (reference value: 0.99%); type: functional; conditions: time 13 day
[20] = Toxicity in C57BL/6 mouse implanted with mouse B16-F10 cells assessed as effect on body weight at 50 mg/kg, ip administered once daily for 13 days; type: organism-based; conditions: in vivo, 312 h, time 13 day
B16-F10 [21] = experiment: Antitumor activity against mouse B16-F10 cells implanted in C57BL/6 mouse assessed as tumor growth inhibition at 50 mg/kg, ip administered once daily for 13 days relative to control; type: functional; conditions: B16-F10, 312 h, time 13 day, read-out: TGI

SMILES	IC50 [1] [µM]	IC50 (B16-F10 [2]) [µM]	IC50 (Jurkat [3]) [µM]	IC50 (B16-F10 [4]) [µM]	IC50 (CT26 [5]) [µM]	IC50 (Jurkat [6]) [µM]	IC50 (CT26 [7]) [µM]	also measured
Cc1cc2cccnc2cc1Nc1ncc2c(n1)N(C1CCOCC1)Cc1nccn1-2	0.00035	7.5	0.04	19.5	8.9	0.7	3.1	–
c1cn2c(n1)CN(C1CCOCC1)c1nc(Nc3ccc4nccnc4c3)ncc1-2	0.0628	20.9	0.21	31.9	27.6	0.8	14.9	–
COc1ccc(Nc2ncc3c(n2)N(C2CCOCC2)Cc2nnc(C)n2-3)c(C)c1	0.0153	–	–	> 50	> 50	> 50	–	–
Cc1cc2ncnn2cc1Nc1ncc2c(n1)N(C1CCOCC1)Cc1nccn1-2	0.0036	–	–	> 50	> 50	9.4	–	–
c1cnc2cc(Nc3ncc4c(n3)N(C3CCOCC3)Cc3nncn3-4)ccc2n1	0.0715	–	–	> 50	45.9	4.1	–	–
COc1ccc(Nc2ncc3c(n2)N(C2CCOCC2)Cc2nccn2-3)c(C)c1	0.0089	21.9	0.51	41.8	31.2	1.4	15.3	–
Cc1cc2ncnn2cc1Nc1ncc2c(n1)N(C1CCOCC1)Cc1nncn1-2	0.0056	–	–	> 50	> 50	> 50	–	–
Cc1cnc(-c2cnn(C)c2)cc1Nc1ncc2c(n1)N(C1CCOCC1)Cc1nccn1-2	0.0294	–	–	> 50	> 50	15	–	–
Cc1cc2ncnn2cc1Nc1ncc2c(n1)N(C1CCOCC1)CC(=O)N2C	–	20.6	0.11	46.8	32.9	11.4	9.35	Activity (Cell membrane [8]): inactive; inhibition (HepG2): Active
Cc1cc2ncnn2cc1Nc1ncc2c(n1)n(C1CCOCC1)c(=O)n2C [AZD-7648]	–	11.4	0.09	33.6	18.8	12.3	6.74	Activity (Cell membrane [8]): inactive; Activity (Cell membrane [9]): Active; inhibition (HepG2): Active; Activity (Jurkat [10]): Active; Activity (Jurkat [11]): Active
Cc1nnc2n1-c1cnc(Nc3ccc4nccnc4c3)nc1N(C1CCOCC1)C2	0.0518	26.9	0.17	26.9	19.4	0.9	9.7	–
Cc1cc2ncnn2cc1Nc1ncc2c(n1)N(C1CCOCC1)Cc1nnc(C)n1-2	0.0084	–	–	> 50	> 50	25.2	–	–
Cc1cc2cccnc2cc1Nc1ncc2c(n1)N(C1CCOCC1)Cc1nnc(C)n1-2	0.00062	6.5	0.05	12.9	5.2	0.8	1.5	–
COc1cccc2c1C(=O)c1c(O)c3c(c(O)c1C2=O)C[C@@](O)(C(=O)CO)C[C@@H]3O[C@H]1C[C@H](N)[C@H](O)[C@H](C)O1 [DOXORUBICIN]	–	–	–	–	–	–	–	inhibition (INH) (CT26 [12]): 9.75%; inhibition in vivo at 2.5 mg/kg (CT26 [13]): 25.9%; inhibition in vivo at 10 mg/kg (CT26 [14]): 30.8%; inhibition (INH) (Jurkat [15]): 23%; inhibition (INH) (B16-F10 [16]): 6.2%; Activity [17]: Non-Toxic
Cc1cnc(-c2cnn(C)c2)cc1Nc1ncc2c(n1)N(C1CCOCC1)Cc1nncn1-2	0.0261	–	–	> 50	> 50	> 50	–	–
Cc1cnc(-c2cnn(C)c2)cc1Nc1ncc2c(n1)N(C1CCOCC1)Cc1nnc(C)n1-2	0.0214	–	–	> 50	> 50	5.7	–	–
Cc1c(COc2cc(OCc3cccc(C#N)c3)c(CN3CCCCC3C(=O)NCCNC(=O)CCCC[C@@H]3SC[C@@H]4NC(=O)N[C@@H]43)cc2Cl)cccc1-c1ccccc1 (stereo partly specified)	–	–	–	–	–	–	–	Activity (B16-F10 [18]): 3.23%; Activity (B16-F10 [19]): 3.53%; Activity [20]: Non-Toxic; inhibition in vivo at 50 mg/kg (B16-F10 [21]): 48.2%
